Oligonucleotides are written 5' to 3', each unit as a sugar letter and its base; * is a phosphorothioate linkage, no mark a phosphodiester; rarer units and linkages stand in square brackets, end groups in braces. Plain capitals give the bases only. d = 2'-deoxy (DNA); r = 2'-OH (RNA)
These substances were tested against UBE2I (assay: reporter assay of Huesken 2005). Details: siRNA.
Further: test concentration or dose not given here.

Q: “sense rCrGrGrArUrGrCrUrUrUrUrCrArArArGrArUrGdTdT / antisense rCrArUrCrUrUrUrGrArArArArGrCrArUrCrCrGdTdA” was tested. Which normalised inhibition (eCFP-eYFP dual reporter) did it give?
A: The normalised inhibition (eCFP-eYFP dual reporter) was 87.3%.

Q: Which normalised inhibition (eCFP-eYFP dual reporter) does the source give for “sense rCrArCrArArUrCrArArArCrArGrArUrCrCrUrAdTdT / antisense rUrArGrGrArUrCrUrGrUrUrUrGrArUrUrGrUrGdAdT” here?
A: The normalised inhibition (eCFP-eYFP dual reporter) was 87.4%.

Q: With “sense rUrGrUrGrCrCrUrGrUrCrCrArUrCrUrUrArGrAdTdT / antisense rUrCrUrArArGrArUrGrGrArCrArGrGrCrArCrAdCdT” as the substance, how does the normalised inhibition (eCFP-eYFP dual reporter) read?
A: Its normalised inhibition (eCFP-eYFP dual reporter) is 76%.

Q: With “sense rArGrCrUrCrArArGrCrArGrArGrGrCrCrUrArCdTdT / antisense rGrUrArGrGrCrCrUrCrUrGrCrUrUrGrArGrCrUdGdG” as the substance, how does the normalised inhibition (eCFP-eYFP dual reporter) read?
A: Its normalised inhibition (eCFP-eYFP dual reporter) is 89.5%.

Q: For “sense rArArCrCrArArArUrArUrCrCrArArGrArCrCrCdTdT / antisense rGrGrGrUrCrUrUrGrGrArUrArUrUrUrGrGrUrUdCdA”, which normalised inhibition (eCFP-eYFP dual reporter) is on record?
A: Its normalised inhibition (eCFP-eYFP dual reporter) is 48.9%.

Q: Which normalised inhibition (eCFP-eYFP dual reporter) does the source give for “sense rCrArGrUrGrUrGrCrCrUrGrUrCrCrArUrCrUrUdTdT / antisense rArArGrArUrGrGrArCrArGrGrCrArCrArCrUrGdTdC” here?
A: The normalised inhibition (eCFP-eYFP dual reporter) was 80.1%.

Q: Which normalised inhibition (eCFP-eYFP dual reporter) does the source give for “sense rGrCrCrUrArCrArCrGrArUrUrUrArCrUrGrCrCdTdT / antisense rGrGrCrArGrUrArArArUrCrGrUrGrUrArGrGrCdCdT” here?
A: The normalised inhibition (eCFP-eYFP dual reporter) was 67.8%.

Q: “sense rGrArGrGrArGrGrArCrArArGrGrArCrUrGrGrAdTdT / antisense rUrCrCrArGrUrCrCrUrUrGrUrCrCrUrCrCrUrCdTdA” was tested. Which normalised inhibition (eCFP-eYFP dual reporter) did it give?
A: Its normalised inhibition (eCFP-eYFP dual reporter) is 70.5%.

Q: “sense rCrCrArGrCrCrArUrCrArCrArArUrCrArArArCdTdT / antisense rGrUrUrUrGrArUrUrGrUrGrArUrGrGrCrUrGrGdCdC” was tested. Which normalised inhibition (eCFP-eYFP dual reporter) did it give?
A: The normalised inhibition (eCFP-eYFP dual reporter) was 56%.

Q: Which normalised inhibition (eCFP-eYFP dual reporter) does the source give for “sense rCrCrCrGrArUrGrGrCrArCrGrArUrGrArArCrCdTdT / antisense rGrGrUrUrCrArUrCrGrUrGrCrCrArUrCrGrGrGdAdT” here?
A: The normalised inhibition (eCFP-eYFP dual reporter) was 55%.

Q: With “sense rArGrArArArGrGrGrArCrUrCrCrGrUrGrGrGrAdTdT / antisense rUrCrCrCrArCrGrGrArGrUrCrCrCrUrUrUrCrUdTdT” as the substance, how does the normalised inhibition (eCFP-eYFP dual reporter) read?
A: Its normalised inhibition (eCFP-eYFP dual reporter) is 63.1%.

Q: With “sense rUrCrCrGrUrGrGrGrArArGrGrArGrGrCrUrUrGdTdT / antisense rCrArArGrCrCrUrCrCrUrUrCrCrCrArCrGrGrAdGdT” as the substance, how does the normalised inhibition (eCFP-eYFP dual reporter) read?
A: The normalised inhibition (eCFP-eYFP dual reporter) was 52.4%.

Q: For “sense rArCrCrArArArUrArUrCrCrArArGrArCrCrCrAdTdT / antisense rUrGrGrGrUrCrUrUrGrGrArUrArUrUrUrGrGrUdTdC”, which normalised inhibition (eCFP-eYFP dual reporter) is on record?
A: The normalised inhibition (eCFP-eYFP dual reporter) was 83.9%.

Q: For “sense rGrCrUrUrGrUrUrUrArArArCrUrArCrGrGrArUdTdT / antisense rArUrCrCrGrUrArGrUrUrUrArArArCrArArGrCdCdT”, which normalised inhibition (eCFP-eYFP dual reporter) is on record?
A: Its normalised inhibition (eCFP-eYFP dual reporter) is 92.2%.

Q: For “sense rGrGrGrGrArCrArGrUrGrUrGrCrCrUrGrUrCrCdTdT / antisense rGrGrArCrArGrGrCrArCrArCrUrGrUrCrCrCrCdGdA”, which normalised inhibition (eCFP-eYFP dual reporter) is on record?
A: The normalised inhibition (eCFP-eYFP dual reporter) was 47.8%.

Q: “sense rArArGrArArArGrGrGrArCrUrCrCrGrUrGrGrGdTdT / antisense rCrCrCrArCrGrGrArGrUrCrCrCrUrUrUrCrUrUdTdC” was tested. Which normalised inhibition (eCFP-eYFP dual reporter) did it give?
A: Its normalised inhibition (eCFP-eYFP dual reporter) is 45.6%.

Q: With “sense rArUrUrCrGrArArCrCrArCrCrArUrUrArUrUrUdTdT / antisense rArArArUrArArUrGrGrUrGrGrUrUrCrGrArArUdTdT” as the substance, how does the normalised inhibition (eCFP-eYFP dual reporter) read?
A: The normalised inhibition (eCFP-eYFP dual reporter) was 81%.

Q: For “sense rArGrArUrGrArUrUrArUrCrCrArUrCrUrUrCrGdTdT / antisense rCrGrArArGrArUrGrGrArUrArArUrCrArUrCrUdTdT”, which normalised inhibition (eCFP-eYFP dual reporter) is on record?
A: The normalised inhibition (eCFP-eYFP dual reporter) was 52.7%.

Q: “sense rUrArCrArCrGrArUrUrUrArCrUrGrCrCrArArAdTdT / antisense rUrUrUrGrGrCrArGrUrArArArUrCrGrUrGrUrAdGdG” was tested. Which normalised inhibition (eCFP-eYFP dual reporter) did it give?
A: The normalised inhibition (eCFP-eYFP dual reporter) was 92.9%.

Q: “sense rGrArArArGrGrGrArCrUrCrCrGrUrGrGrGrArAdTdT / antisense rUrUrCrCrCrArCrGrGrArGrUrCrCrCrUrUrUrCdTdT” was tested. Which normalised inhibition (eCFP-eYFP dual reporter) did it give?
A: The normalised inhibition (eCFP-eYFP dual reporter) was 89.3%.

Q: How did the normalised inhibition (eCFP-eYFP dual reporter) turn out when “sense rArCrCrCrArUrUrUrGrGrUrUrUrCrGrUrGrGrCdTdT / antisense rGrCrCrArCrGrArArArCrCrArArArUrGrGrGrUdGdG” was run?
A: The normalised inhibition (eCFP-eYFP dual reporter) was 56.9%.

Q: Which normalised inhibition (eCFP-eYFP dual reporter) does the source give for “sense rArArArUrGrUrArArArUrUrCrGrArArCrCrArCdTdT / antisense rGrUrGrGrUrUrCrGrArArUrUrUrArCrArUrUrUdTdG” here?
A: The normalised inhibition (eCFP-eYFP dual reporter) was 53.9%.

Q: For “sense rCrCrArGrGrArArArGrArArArGrGrGrArCrUrCdTdT / antisense rGrArGrUrCrCrCrUrUrUrCrUrUrUrCrCrUrGrGdAdA”, which normalised inhibition (eCFP-eYFP dual reporter) is on record?
A: The normalised inhibition (eCFP-eYFP dual reporter) was 54.9%.

Q: For “sense rCrArGrArGrGrCrCrUrArCrArCrGrArUrUrUrAdTdT / antisense rUrArArArUrCrGrUrGrUrArGrGrCrCrUrCrUrGdCdT”, which normalised inhibition (eCFP-eYFP dual reporter) is on record?
A: Its normalised inhibition (eCFP-eYFP dual reporter) is 83.8%.

Q: With “sense rGrGrArGrGrCrUrUrGrUrUrUrArArArCrUrArCdTdT / antisense rGrUrArGrUrUrUrArArArCrArArGrCrCrUrCrCdTdT” as the substance, how does the normalised inhibition (eCFP-eYFP dual reporter) read?
A: The normalised inhibition (eCFP-eYFP dual reporter) was 82.5%.

Q: For “sense rCrCrGrArUrGrGrCrArCrGrArUrGrArArCrCrUdTdT / antisense rArGrGrUrUrCrArUrCrGrUrGrCrCrArUrCrGrGdGdA”, which normalised inhibition (eCFP-eYFP dual reporter) is on record?
A: The normalised inhibition (eCFP-eYFP dual reporter) was 81.8%.

Q: With “sense rCrCrUrUrCrGrGrGrGrArCrArGrUrGrUrGrCrCdTdT / antisense rGrGrCrArCrArCrUrGrUrCrCrCrCrGrArArGrGdGdT” as the substance, how does the normalised inhibition (eCFP-eYFP dual reporter) read?
A: The normalised inhibition (eCFP-eYFP dual reporter) was 51.1%.

Q: With “sense rUrUrArArArCrUrArCrGrGrArUrGrCrUrUrUrUdTdT / antisense rArArArArGrCrArUrCrCrGrUrArGrUrUrUrArAdAdC” as the substance, how does the normalised inhibition (eCFP-eYFP dual reporter) read?
A: The normalised inhibition (eCFP-eYFP dual reporter) was 50.2%.

Q: With “sense rGrUrArArArUrUrCrGrArArCrCrArCrCrArUrUdTdT / antisense rArArUrGrGrUrGrGrUrUrCrGrArArUrUrUrArCdAdT” as the substance, how does the normalised inhibition (eCFP-eYFP dual reporter) read?
A: The normalised inhibition (eCFP-eYFP dual reporter) was 89.2%.

Q: How did the normalised inhibition (eCFP-eYFP dual reporter) turn out when “sense rArArCrCrUrCrArUrGrArArCrUrGrGrGrArGrUdTdT / antisense rArCrUrCrCrCrArGrUrUrCrArUrGrArGrGrUrUdCdA” was run?
A: Its normalised inhibition (eCFP-eYFP dual reporter) is 34.5%.

Q: Which normalised inhibition (eCFP-eYFP dual reporter) does the source give for “sense rUrUrCrGrArArCrCrArCrCrArUrUrArUrUrUrCdTdT / antisense rGrArArArUrArArUrGrGrUrGrGrUrUrCrGrArAdTdT” here?
A: Its normalised inhibition (eCFP-eYFP dual reporter) is 59.1%.

Q: For “sense rArCrArGrUrGrUrGrCrCrUrGrUrCrCrArUrCrUdTdT / antisense rArGrArUrGrGrArCrArGrGrCrArCrArCrUrGrUdCdC”, which normalised inhibition (eCFP-eYFP dual reporter) is on record?
A: The normalised inhibition (eCFP-eYFP dual reporter) was 59.2%.

Q: For “sense rArGrGrGrArCrUrCrCrGrUrGrGrGrArArGrGrAdTdT / antisense rUrCrCrUrUrCrCrCrArCrGrGrArGrUrCrCrCrUdTdT”, which normalised inhibition (eCFP-eYFP dual reporter) is on record?
A: The normalised inhibition (eCFP-eYFP dual reporter) was 72.1%.

Q: Which normalised inhibition (eCFP-eYFP dual reporter) does the source give for “sense rArUrUrCrCrArGrGrArArArGrArArArGrGrGrAdTdT / antisense rUrCrCrCrUrUrUrCrUrUrUrCrCrUrGrGrArArUdGdG” here?
A: Its normalised inhibition (eCFP-eYFP dual reporter) is 83.9%.

Q: For “sense rGrArArArGrArArArGrGrGrArCrUrCrCrGrUrGdTdT / antisense rCrArCrGrGrArGrUrCrCrCrUrUrUrCrUrUrUrCdCdT”, which normalised inhibition (eCFP-eYFP dual reporter) is on record?
A: Its normalised inhibition (eCFP-eYFP dual reporter) is 53.1%.

Q: How did the normalised inhibition (eCFP-eYFP dual reporter) turn out when “sense rArCrCrUrCrArUrGrArArCrUrGrGrGrArGrUrGdTdT / antisense rCrArCrUrCrCrCrArGrUrUrCrArUrGrArGrGrUdTdC” was run?
A: The normalised inhibition (eCFP-eYFP dual reporter) was 58.8%.

Q: With “sense rArGrArUrCrCrUrArUrUrArGrGrArArUrArCrAdTdT / antisense rUrGrUrArUrUrCrCrUrArArUrArGrGrArUrCrUdGdT” as the substance, how does the normalised inhibition (eCFP-eYFP dual reporter) read?
A: Its normalised inhibition (eCFP-eYFP dual reporter) is 90.4%.
